According to publication PMC9181188 (International Journal of Molecular Sciences, 2022):
≈ marks a conversion by molar mass, not a printed value. Read-outs that look alike come from different tables or passages of the source.

How the values were obtained:
SW480 cells = test: MTT assay, SW480; assay type: cell-based, human; details: for IC50: Homo sapiens, SW480, 72 h, human primary colon cancer, 72 h, MTT, mean ± SD; for SI SW480: SI = IC50 for normal cell line (HaCaT)/IC50 cancer cell line
SW620 cells = test: MTT assay, SW620; assay type: cell-based, human; details: for IC50: human metastatic colon cancer, 72 h, MTT, mean ± SD; for SI SW620: SI = IC50 for normal cell line (HaCaT)/IC50 cancer cell line
PC3 cells = test: MTT assay, PC3; assay type: cell-based, human; details: for IC50: human metastatic prostate cancer, 72 h, MTT, mean ± SD; for SI PC3: SI = IC50 for normal cell line (HaCaT)/IC50 cancer cell line
HaCaT cells = test: MTT assay, HaCaT normal cells; assay type: cell-based; details: human immortal keratinocyte cell line, 72 h, mean ± SD
S. aureus NCTC 4163 = test: MIC, twofold microdilution, standard strain; assay type: cell-based; details: Staphylococcus aureus, NCTC4163; 18 h of treatment; read-out: MIC S. aureus NCTC 4163
S. aureus ATCC 25923 = test: MIC, twofold microdilution, standard strain; assay type: cell-based; details: Staphylococcus aureus, ATCC25923; 18 h of treatment; read-out: MIC S. aureus ATCC 25923
S. aureus ATCC 6538 = test: MIC, twofold microdilution, standard strain; assay type: cell-based; details: Staphylococcus aureus, ATCC6538; 18 h of treatment; read-out: MIC S. aureus ATCC 6538
S. aureus ATCC 29213 = test: MIC, twofold microdilution, standard strain; assay type: cell-based; details: Staphylococcus aureus, ATCC29213; 18 h of treatment; read-out: MIC S. aureus ATCC 29213
[1] = system: S. epidermidis ATCC 12228; test: MIC, twofold microdilution, standard strain; assay type: cell-based; details: Staphylococcus epidermidis, ATCC12228; 18 h of treatment; read-out: MIC S. epidermidis ATCC 12228
[2] = system: S. epidermidis ATCC 35984; test: MIC, twofold microdilution, standard strain; assay type: cell-based; details: Staphylococcus epidermidis, ATCC35984; 18 h of treatment; read-out: MIC S. epidermidis ATCC 35984
E. coli ATCC 25922 = test: MIC, twofold microdilution, standard strain; assay type: cell-based, Escherichia coli; details: 18 h of treatment; for MIC: Escherichia coli, ATCC25922, read-out: MIC E. coli ATCC 25922
P. aeruginosa ATCC 27853 = test: MIC, twofold microdilution, standard strain; assay type: cell-based; details: Pseudomonas aeruginosa, ATCC27853; 18 h of treatment; read-out: MIC P. aeruginosa ATCC 27853
[3] = system: S. epidermidis KR 4047 825/19; test: MIC, clinical S. epidermidis strain; assay type: cell-based; details: Staphylococcus epidermidis, KR4047825/19, quinolone-resistant, 18 h of treatment
[4] = system: S. epidermidis KR 4243 829/19; test: MIC, clinical S. epidermidis strain; assay type: cell-based; details: Staphylococcus epidermidis, KR4243829/19, quinolone-susceptible, 18 h of treatment
[5] = system: S. epidermidis KR 4313 834/19; test: MIC, clinical S. epidermidis strain; assay type: cell-based; details: Staphylococcus epidermidis, KR4313834/19, quinolone-susceptible, 18 h of treatment
[6] = system: S. epidermidis KR 4358/2 840/19; test: MIC, clinical S. epidermidis strain; assay type: cell-based; details: Staphylococcus epidermidis, KR4358/2840/19; clinical S. epidermidis, quinolone-susceptible, 18 h of treatment; read-out: MIC KR 4358/2 840/19
[7] = system: S. epidermidis T 5253 845/19; test: MIC, clinical S. epidermidis strain; assay type: cell-based; details: Staphylococcus epidermidis, T5253845/19, quinolone-resistant, 18 h of treatment
[8] = system: S. epidermidis T 5399 848/19; test: MIC, clinical S. epidermidis strain; assay type: cell-based; details: Staphylococcus epidermidis, T5399848/19, quinolone-susceptible, 18 h of treatment
[9] = system: S. epidermidis T 5501 851/19; test: MIC, clinical S. epidermidis strain; assay type: cell-based; details: Staphylococcus epidermidis, T5501851/19, read-out: MIC T 5501 851/19, quinolone-susceptible, 18 h of treatment
M. tuberculosis H37Rv = test: MABA (microplate Alamar blue assay) MIC; assay type: cell-based; details: Mycobacterium tuberculosis, 336 h, read-out: MIC M. tuberculosis H37Rv
[10] = system: M. tuberculosis Spec. 192 (Sensitive to Tuberculostatics); test: MABA (microplate Alamar blue assay) MIC; assay type: cell-based; details: Mycobacterium tuberculosis, 336 h, read-out: MIC M. tuberculosis Spec. 192 (Sensitive to Tuberculostatics)
[11] = target: T1, S. aureus topoisomerase IV (Staphylococcus aureus, UniProt P0C1S7+P0C1U9); test: S. aureus topoisomerase IV decatenation assay; assay type: biochemical
T1 construct: purchased Inspiralis
Description: The assay was performed using S. aureus topoisomerase IV […] kit (Inspiralis). Kinetoplast DNA (kDNA) was the substrate for topoisomerase IV.

[12] = system: standard staphylococci (S. aureus, S. epidermidis); test: MIC, standard Gram-positive strains as a group; assay type: cell-based; details: Staphylococcus aureus; range over standard Gram-positive strains; read-out: MIC against standard staphylococci
[13] = system: quinolone-susceptible clinical coagulase-negative staphylococci; test: MIC, quinolone-susceptible clinical isolates as a group; assay type: cell-based; details: Staphylococcus epidermidis, 18 h; five quinolone-susceptible isolates; read-out: MIC against quinolone-susceptible clinical isolates
M. tuberculosis strains = test: MABA MIC, mycobacterial strains as a group; assay type: cell-based; details: Mycobacterium tuberculosis, read-out: MIC antimycobacterial (strain not specified)
S. aureus DNA gyrase = S. aureus DNA gyrase (Staphylococcus aureus, UniProt P0A0K8+P20831); test: biochemical
Chain of S. aureus DNA gyrase (P20831 whole entry): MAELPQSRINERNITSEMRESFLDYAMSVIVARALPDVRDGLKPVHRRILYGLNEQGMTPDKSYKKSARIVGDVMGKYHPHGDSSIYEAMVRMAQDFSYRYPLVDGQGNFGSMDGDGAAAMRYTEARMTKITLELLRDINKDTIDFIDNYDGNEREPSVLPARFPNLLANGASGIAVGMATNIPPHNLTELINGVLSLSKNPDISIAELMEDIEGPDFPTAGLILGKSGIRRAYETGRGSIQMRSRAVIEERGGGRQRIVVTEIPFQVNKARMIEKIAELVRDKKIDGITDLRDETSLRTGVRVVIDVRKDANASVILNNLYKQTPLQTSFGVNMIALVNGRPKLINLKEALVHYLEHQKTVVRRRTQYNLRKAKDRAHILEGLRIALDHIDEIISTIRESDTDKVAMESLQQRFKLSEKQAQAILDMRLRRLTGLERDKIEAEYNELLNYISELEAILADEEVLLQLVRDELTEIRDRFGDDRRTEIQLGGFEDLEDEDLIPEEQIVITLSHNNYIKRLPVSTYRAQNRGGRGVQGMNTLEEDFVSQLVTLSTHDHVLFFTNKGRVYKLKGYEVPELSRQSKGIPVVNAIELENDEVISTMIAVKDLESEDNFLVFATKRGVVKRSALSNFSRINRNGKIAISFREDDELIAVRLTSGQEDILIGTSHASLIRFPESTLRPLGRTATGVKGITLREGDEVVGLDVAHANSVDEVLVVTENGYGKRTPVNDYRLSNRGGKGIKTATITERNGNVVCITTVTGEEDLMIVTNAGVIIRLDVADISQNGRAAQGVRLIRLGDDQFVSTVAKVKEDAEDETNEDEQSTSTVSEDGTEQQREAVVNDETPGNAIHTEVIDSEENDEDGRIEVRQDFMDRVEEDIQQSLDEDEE
Chain of S. aureus DNA gyrase (P0A0K8 whole entry): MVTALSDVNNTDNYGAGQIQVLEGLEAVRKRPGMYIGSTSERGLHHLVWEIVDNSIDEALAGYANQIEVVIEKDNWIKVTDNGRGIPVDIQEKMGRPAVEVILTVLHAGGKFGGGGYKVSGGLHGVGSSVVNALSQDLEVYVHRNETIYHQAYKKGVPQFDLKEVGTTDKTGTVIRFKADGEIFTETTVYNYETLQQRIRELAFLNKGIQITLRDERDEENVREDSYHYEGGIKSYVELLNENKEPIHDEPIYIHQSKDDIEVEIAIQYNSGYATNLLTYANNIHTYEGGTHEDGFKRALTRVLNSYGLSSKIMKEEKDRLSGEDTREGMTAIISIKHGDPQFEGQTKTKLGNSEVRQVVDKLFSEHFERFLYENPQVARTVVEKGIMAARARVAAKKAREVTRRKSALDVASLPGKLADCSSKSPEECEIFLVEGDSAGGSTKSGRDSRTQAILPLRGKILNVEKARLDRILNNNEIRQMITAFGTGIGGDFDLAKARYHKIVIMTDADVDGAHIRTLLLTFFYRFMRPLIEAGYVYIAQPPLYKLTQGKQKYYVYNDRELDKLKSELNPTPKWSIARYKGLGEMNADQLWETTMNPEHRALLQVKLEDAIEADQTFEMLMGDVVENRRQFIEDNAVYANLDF
Description: The assay was performed using S. aureus DNA Gyrase Supercoiling kit (Inspiralis). […] Samples were vortexed, centrifuged, and 20 µL of the aqueous phase of each sample was loaded onto a 1% agarose gel and left for 30 min prior to electrophoresis to allow diffusion of salt. Electrophoresis was conducted in TAE buffer for 3 h at 50 V. Gels were stained with ethidium bromide and visualized under UV light in a transilluminator (ChemiDoc MP, Bio Rad, Warsaw, Poland).

T1 sequence (P0C1U9 whole entry): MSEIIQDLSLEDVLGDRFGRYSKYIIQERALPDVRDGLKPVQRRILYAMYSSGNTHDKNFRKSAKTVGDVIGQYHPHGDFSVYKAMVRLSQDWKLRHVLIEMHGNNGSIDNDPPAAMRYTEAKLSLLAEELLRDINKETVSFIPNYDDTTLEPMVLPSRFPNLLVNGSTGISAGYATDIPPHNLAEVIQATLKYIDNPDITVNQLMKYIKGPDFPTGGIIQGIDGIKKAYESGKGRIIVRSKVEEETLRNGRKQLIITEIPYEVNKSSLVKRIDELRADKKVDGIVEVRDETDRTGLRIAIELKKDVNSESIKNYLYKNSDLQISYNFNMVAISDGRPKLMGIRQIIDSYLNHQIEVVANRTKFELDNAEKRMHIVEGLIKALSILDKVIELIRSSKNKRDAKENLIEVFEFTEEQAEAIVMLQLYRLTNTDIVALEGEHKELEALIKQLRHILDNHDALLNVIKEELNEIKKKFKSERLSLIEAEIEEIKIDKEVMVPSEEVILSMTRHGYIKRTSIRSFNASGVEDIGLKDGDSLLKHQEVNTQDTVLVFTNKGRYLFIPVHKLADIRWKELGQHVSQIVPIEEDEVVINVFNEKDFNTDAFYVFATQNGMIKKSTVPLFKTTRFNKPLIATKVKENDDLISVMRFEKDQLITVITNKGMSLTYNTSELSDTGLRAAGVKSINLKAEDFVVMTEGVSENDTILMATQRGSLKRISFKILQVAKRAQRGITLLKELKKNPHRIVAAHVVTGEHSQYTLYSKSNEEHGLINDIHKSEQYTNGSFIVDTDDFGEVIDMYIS
T1 sequence (P0C1S7 whole entry): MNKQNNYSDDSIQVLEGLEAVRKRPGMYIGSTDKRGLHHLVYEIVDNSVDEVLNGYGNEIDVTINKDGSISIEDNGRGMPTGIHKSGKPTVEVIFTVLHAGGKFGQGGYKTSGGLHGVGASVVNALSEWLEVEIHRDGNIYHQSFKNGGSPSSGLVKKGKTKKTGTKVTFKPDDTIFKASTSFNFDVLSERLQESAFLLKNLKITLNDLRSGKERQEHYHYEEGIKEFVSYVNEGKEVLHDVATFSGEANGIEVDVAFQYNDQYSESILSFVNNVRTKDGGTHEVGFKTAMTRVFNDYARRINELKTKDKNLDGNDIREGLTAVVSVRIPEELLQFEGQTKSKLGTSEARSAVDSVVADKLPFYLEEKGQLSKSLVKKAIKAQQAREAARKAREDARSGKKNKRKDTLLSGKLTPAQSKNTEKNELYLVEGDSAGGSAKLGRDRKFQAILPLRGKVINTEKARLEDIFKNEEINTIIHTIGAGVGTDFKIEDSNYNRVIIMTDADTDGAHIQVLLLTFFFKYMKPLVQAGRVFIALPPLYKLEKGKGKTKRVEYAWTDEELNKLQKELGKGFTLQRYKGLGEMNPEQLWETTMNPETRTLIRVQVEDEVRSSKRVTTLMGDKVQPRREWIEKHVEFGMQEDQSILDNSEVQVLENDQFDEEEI

Structure (SMILES)	IC50 (SW480 cells) [µM]	SI SW480 (SW480 cells)	IC50 (SW620 cells; Homo sapiens, SW-620, 72 h) [µM]	SI SW620 (SW620 cells)	IC50 (PC3 cells; Homo sapiens, PC-3, 72 h) [µM]	SI PC3 (PC3 cells)	IC50 (HaCaT cells) [µM]	MIC (S. aureus NCTC 4163) [µg/mL]	MIC (S. aureus ATCC 25923) [µg/mL]	MIC (S. aureus ATCC 6538) [µg/mL]	MIC (S. aureus ATCC 29213) [µg/mL]	MIC [1] [µg/mL]	MIC [2] [µg/mL]	MIC (E. coli ATCC 25922) [µg/mL]	MIC (P. aeruginosa ATCC 27853) [µg/mL]	MIC [3] [µg/mL]	MIC [4] [µg/mL]	MIC [5] [µg/mL]	MIC [6] [µg/mL]	MIC [7] [µg/mL]	also measured
C/C=C/C(=O)N1CCCC2CN(c3c(F)cc4c(=O)c(C(=O)O)cn(C5CC5)c4c3OC)CC21 (stereo not drawn) [Compound 1m, 7-{1-(E)-But-2-enoyl-octahydro-pyrrolo[3,4-b]pyridin-6-yl}-1-cyclopropyl-6-fluoro-8-methoxy-4-oxo-1,4-dihydro-quinoline-3-carboxylic acid]	31.6 ± 4.7	2.0	24.8 ± 3.2	2.6	23.8 ± 3.4	2.7	64.1 ± 2.3	0.5 (≈ 1.06 µM)	0.5 (≈ 1.06 µM)	0.5 (≈ 1.06 µM)	0.5 (≈ 1.06 µM)	1 (≈ 2.13 µM)	0.5 (≈ 1.06 µM)	16 (≈ 34.1 µM)	> 512	32 (≈ 68.2 µM)	0.5 (≈ 1.06 µM)	1 (≈ 2.13 µM)	1 (≈ 2.13 µM)	64 (≈ 136 µM)	MIC E. coli ATCC 25922 (E. coli ATCC 25922): 2 to 16 µg/mL; MIC [8]: 1 µg/mL (≈ 2.13 µM); MIC [9]: 1 µg/mL (≈ 2.13 µM); MIC (M. tuberculosis H37Rv): 64 µg/mL (≈ 136 µM); MIC [10]: 64 µg/mL (≈ 136 µM); IC50 [11]: 130 µM; MIC [12]: 0.5 to 2 µg/mL (≈ 1.06 to 4.26 µM); MIC [13]: 0.5 to 1 µg/mL (≈ 1.06 to 2.13 µM); MIC (M. tuberculosis strains): 64 µg/mL (≈ 136 µM); IC50 (S. aureus DNA gyrase): > 136 µM
C/C=C/C=C/C(=O)N1CCCC2CN(c3c(F)cc4c(=O)c(C(=O)O)cn(C5CC5)c4c3OC)CC21 (stereo not drawn) [Compound 2m, 1-Cyclopropyl-6-fluoro-7-{1-(2E,4E)-hexa-2,4-dienoyl-octahydro-pyrrolo[3,4-b]pyridin-6-yl}-8-methoxy-4-oxo-1,4-dihydro-quinoline-3-carboxylic acid]	6.3 ± 1.2	15.7	< 5	25.4	< 5	36.7	99.1 ± 1.8	1 (≈ 2.02 µM)	1 (≈ 2.02 µM)	1 (≈ 2.02 µM)	1 (≈ 2.02 µM)	2 (≈ 4.04 µM)	1 (≈ 2.02 µM)	64 (≈ 129 µM)	> 512	32 (≈ 64.6 µM)	1 (≈ 2.02 µM)	1 (≈ 2.02 µM)	1 (≈ 2.02 µM)	32 (≈ 64.6 µM)	IC50 (SW620 cells): 3.9 ± 1.1 µM; IC50 (PC3 cells): 2.7 ± 1.1 µM; MIC [8]: 0.5 µg/mL (≈ 1.01 µM); MIC [9]: 2 µg/mL (≈ 4.04 µM); MIC (M. tuberculosis H37Rv; 2 weeks of treatment): 32 µg/mL (≈ 64.6 µM); MIC ([10]; 2 weeks of treatment): 32 µg/mL (≈ 64.6 µM); IC50 [11]: > 129 µM; MIC [12]: 0.5 to 2 µg/mL (≈ 1.01 to 4.04 µM); MIC [13]: 0.5 to 1 µg/mL (≈ 1.01 to 2.02 µM); IC50 (S. aureus DNA gyrase): > 129 µM
